The test concerns salmons. Put plainly: Fish feeding experiment, fillet colour by SalmoFan color measurement scale. It counts as in vivo. To be noted: salmon fillets, supplement in basic fish feed (50 mg astaxanthin/kg or 15% (w/w) fermented composition), fed for 8 weeks. The protocol: The colour intensity of a salmonoid fillets according to the present invention may be determined by the SalmoFan™ color measurement scale. The SalmoFan™ color measurement scale has been developed by DSM and may be determined physically, using visual inspection applying a colour scale, or by digitally determination, using a colour sensor to determine the colour intensity. Fish feeding experiment using the following feed are performed: • (1) A basic fish feed comprising 50 mg chemically produced astaxanthin/kg basic fish feed; • (2) A basic fish feed comprising 15% (w/w) of a fermented composition comprising 99% fermented rapeseed meal and 1% fermented seaweed; and • (3) A basic fish feed comprising 15% (w/w) of a fermented composition as provided in Example 1, comprising 93% fermented soymeal, 6% fermented rapeseed meal and 1% fermented seaweed. 3 ponds with each 10 salmons of about 3 kg per salmon was fed with the above-mentioned basic fish feed, including supplement (1), (2) or (3), in the stated concentrations, for a period of 8 weeks. After the […] weeks the salmons were harvested, gutted and filleted and the colour of the fillets was determined by the SalmoFan™ color measurement scale.

SMILES strings stand for the structures.

For the molecule `CC1=C(/C=C/C(C)=C/C=C/C(C)=C/C=C/C=C(C)/C=C/C=C(C)/C=C/C2=C(C)C(=O)[C@@H](O)CC2(C)C)C(C)(C)C[C@H](O)C1=O` [supplement 1, astaxanthin], the Colour intensity is on record as 23-23.

These data come from US20240306682A1, “Process for providing a combination of fermented seaweed and/or algae and plant material selected from the family Fabaceae” (FERMENTATIONEXPERTS A/S, priority 2020, published 2024).
